The test system of assay [1] is human lung cancer cells (A549) subcutaneous xenograft. Kind of assay: lung cancer subcutaneous xenograft animal model, intratumoral injection. It is filed as in vivo, mice (BALB/c-nu/nu). As to conditions: intratumoral 5 mg/kg once every other day, 20 days; for Weight of tumor (g) (mean ± SD): control 1.92 ± 0.13; for Volume of tumor (mm^3) (mean ± SD): control 1700.16 ± 305.72. Here is the method:
(§1) Experimental animals: 4-6 weeks old female immunodeficiency mice (BALB/c-nu/nu, Beijing Vital River Laboratory Animal Technology Co., Ltd.).
(§2) Subcutaneous xenograft animal model. The number of cells inoculated subcutaneously vin mice was about 2×10^6/200 μL. When the volume of the subcutaneous tumor was greater than 100 mm^3, the mice were randomly divided into groups and subjected to treatment. When the mass volume of the tumors in model control group reached 2000 mm^3 or the animal dies, the treatment ended. The animals were dissected, the tumors were taken out, and the weight and volume of the tumors were measured. During the period of the entire experiment, the mice were observed and the body weight was measured every other day.
The method used for the drug efficacy test in the animal model of the subcutaneous xenograft derived from lung cancer cells was as described in Example 5. The tumor cells were human lung cancer cells (A549), and the route of administration was intratumoral injection. There were two groups: the model control group and the polypeptide or its derivative treatment group (N1-N12). The drug dosage of the treatment group was 5 mg/kg, once every other day and the treatment time was 10 days.
The procedure of the efficacy test in this example, route and dosage of administration were the same as in Example 9. The peptides used in the experiment were N13-N32. The treatment time was 20 days.

Assay [2] concerns human breast cancer cells (MDA-MB-453). The assay can be described thus: scratch assay, migration of MDA-MB-453 cells. The format is cell-based. As to conditions: MDA-MB-453, 10 μM, 48 hours; control group 32.42 ± 2.04. The protocol:
(§3) In the scratch assay, the cell migration rate was negatively correlated with the inhibitory effect of the drug component on tumor cell migration ability. The cell migration inhibition experiment was described as follows: tumor cells were cultured in vitro, cells in logarithmic growth phase were collected and seeded evenly in a 24-well plate at a density of 1-2×10^5 cells/well; the cells were cultured in a cell incubator until a monolayer was formed; a scratch tool was used to make a “-” (straight) scratch on the monolayer of cells; the cells were washed 1-3 times with PBS, and a medium (with 2% fetal bovine serum) containing specific test components was added to the culture. Experimental grouping: PBS control group; polypeptide or derivative thereof treatment group (N1-N54), 10 μM. Three independent parallel wells were set up in each group, and the cells were cultured continuously in a cell incubator for 48 hours. […] At least 3 representative images for each well were taken. ImageJ software was used to count the migration distance of the cells, and the cell migration rate was calculated as: cell migration rate (%)=(width of original scratch−width of current scratch)/width of original scratch×100.
This example was a scratch assay to evaluate the inhibitory effect of the polypeptide or derivative thereof (N1-N54) on the migration ability of human breast cancer cells (MDA-MB-453). The experimental method was as described in Example 2.

The subject of assay [3] is human lung cancer cells (A549) subcutaneous xenograft. The assay can be described thus: lung cancer subcutaneous xenograft animal model, intravenous injection. It is filed as in vivo, mice (BALB/c-nu/nu). Conditions: intravenous 60 mg/kg once every other day, 20 days; for Weight of tumor (g) (mean ± SD): control 2.53 ± 0.17; for Volume of tumor (mm^3) (mean ± SD): control 3373.26 ± 581.44. Here is the method: as §1, §2
The method used in the efficacy test on the lung cancer subcutaneous xenograft animal model was as described in Example 5. The lung cancer cells were the human lung cancer cells (A549), and the route of administration was intravenous injection. This example involved a total of 3 experiments to evaluate N1-N15, N16-N30, and N31-N54 respectively. The experimental procedure, route of administration, dosage and frequency of administration, and detection method were all consistent in the three experiments. The experimental groups were model control group and polypeptide or derivative thereof treatment groups (N1-N15, N16-N30, or N31-N54). The drug dosage of the N1-N54 treatment groups was 60 mg/kg, and the treatment time was 20 days.

Assay [4] deals with human melanoma cells (A375). The assay can be described thus: scratch assay, migration of A375 cells. It is filed as cell-based. As to conditions: A375, 10 μM, 48 hours; control group 44.03 ± 6.21. The protocol: as §3
This example was a scratch assay to evaluate the inhibitory effect of the polypeptide or derivative thereof (N1-N54) on the migration ability of human melanoma cells (A375). The experimental method was as described in Example 2.

Ends that are not written are not given here. PEG = not defined here

In the case of “N13: SEQ ID NO: 1 with deletion of positions 15-18 and positions 1-5 (LAKENVTQD)”, the results for the “Weight of tumor (g) (mean ± SD)” value in assay [1] and in assay [3] were 1.09 ± 0.09 g and 0.8 ± 0.17 g, respectively. For the same substance, the “Volume of tumor (mm^3) (mean ± SD)” value worked out at 986.7 ± 261.02 mm^3 in assay [1] and 1320.14 ± 147.22 mm^3 in assay [3]. In addition, the “Migration rate (%) (mean ± SD, P)” value in assay [2] is 9.28 ± 2.43,*** %; in assay [4], 16.28 ± 4.19,** %.
With “N14: SEQ ID NO: 1 with deletion of positions 1-5 and addition of one amino acid at the carboxyl terminal (LAKENVTQDAEDNC)”, the “Weight of tumor (g) (mean ± SD)” value in assay [1] came to 1.09 ± 0.29 g; in assay [3], 0.7 ± 0.26 g. Besides, the “Volume of tumor (mm^3) (mean ± SD)” value in assay [1] stood at 913.68 ± 219.62 mm^3; in assay [3] it was 1431.61 ± 215.71 mm^3. In addition, the “Migration rate (%) (mean ± SD, P)” value was 7.58 ± 2.34,*** % in assay [2] and 6.28 ± 1.12,*** % in assay [4].
For the substance “N15: SEQ ID NO: 1 with substitution N18R and addition of one amino acid to the carboxyl terminal (YRVRFLAKENVTQDAEDRC)”, the “Weight of tumor (g) (mean ± SD)” value in assay [1] amounted to 0.63 ± 0.13 g; in assay [3] it was 0.95 ± 0.18 g. Also, the “Volume of tumor (mm^3) (mean ± SD)” value in assay [1] was determined as 793.32 ± 173.3 mm^3; in assay [3] it was 1307.48 ± 416.26 mm^3. Also, the figures for the “Migration rate (%) (mean ± SD, P)” value in assay [2] and in assay [4] were 8.95 ± 2.93,*** % and 10.62 ± 2.53,*** %, respectively.
With “N16: SEQ ID NO: 1 with substitution A7R and addition of one amino acid at the carboxyl terminus (YRVRFLRKENVTQDAEDNC)”, the “Weight of tumor (g) (mean ± SD)” value in assay [1] came to 0.83 ± 0.27 g; in assay [3] it was 1.05 ± 0.26 g. In addition, the “Volume of tumor (mm^3) (mean ± SD)” value in assay [1] came to 897.27 ± 176.16 mm^3; in assay [3], 1442.4 ± 293.63 mm^3. Also, the entries for the “Migration rate (%) (mean ± SD, P)” value in assay [2] and in assay [4] were 8.11 ± 1.71,*** % and 11.28 ± 3.14,*** %, respectively.
Take “N17: SEQ ID NO: 1 with addition of two amino acids to the carboxyl terminal (YRVRFLAKENVTQDAEDNCT)”: the entries for the “Weight of tumor (g) (mean ± SD)” value in assay [1] and in assay [3] were 0.76 ± 0.26 g and 0.9 ± 0.16 g, respectively. Further, the “Volume of tumor (mm^3) (mean ± SD)” value in assay [1] was 893.18 ± 234.75 mm^3; in assay [3], 1301.58 ± 329.64 mm^3. Further, the results for the “Migration rate (%) (mean ± SD, P)” value in assay [2] and in assay [4] were 4.51 ± 1.96,*** % and 14.35 ± 2.52,*** %, respectively.
On to “N18: SEQ ID NO: 1 with addition of one amino acid at the amino terminal and one at the carboxyl terminal (FYRVRFLAKENVTQDAEDNC)”, for which the “Weight of tumor (g) (mean ± SD)” value in assay [1] is 0.75 ± 0.26 g; in assay [3] it was 1.3 ± 0.24 g. Also, the “Volume of tumor (mm^3) (mean ± SD)” value in assay [1] came to 969.37 ± 243.04 mm^3; in assay [3], 1161.51 ± 297.07 mm^3. The “Migration rate (%) (mean ± SD, P)” value was 9.97 ± 2.44,*** % in assay [2] and 12.67 ± 1.33,*** % in assay [4].
For “N19: SEQ ID NO: 1 with deletion of positions 1-5 and 15-18 and addition of two amino acids at the carboxyl terminal (LAKENVTQDRC)”, the “Weight of tumor (g) (mean ± SD)” value in assay [1] is 0.81 ± 0.29 g; in assay [3], 0.81 ± 0.19 g. Besides, the “Volume of tumor (mm^3) (mean ± SD)” value is 963.18 ± 185.31 mm^3 in assay [1] and 1235.44 ± 432.58 mm^3 in assay [3]. Besides, the figures for the “Migration rate (%) (mean ± SD, P)” value in assay [2] and in assay [4] were 25.49 ± 2.69,* % and 12.93 ± 3.34,*** %, respectively.
In the case of “N20: SEQ ID NO: 1 with addition of one amino acid at the amino terminal and deletion of position 18 (RYRVRFLAKENVTQDAED)”, the “Weight of tumor (g) (mean ± SD)” value turned out to be 0.89 ± 0.22 g in assay [1] and 0.56 ± 0.18 g in assay [3]. The “Volume of tumor (mm^3) (mean ± SD)” value in assay [1] was 1037.56 ± 256.6 mm^3; in assay [3] it was 1072.16 ± 390.44 mm^3. Besides, the “Migration rate (%) (mean ± SD, P)” value is recorded as 7.67 ± 1.35,** % in assay [2] and 14.61 ± 3.12,*** % in assay [4].
Consider “N21: SEQ ID NO: 1 with deletion of positions 1-5 and 15-18 and addition of one amino acid at the amino terminal (SLAKENVTQD)”, for which the “Weight of tumor (g) (mean ± SD)” value in assay [1] was 0.9 ± 0.28 g; in assay [3] it was 0.71 ± 0.22 g. In addition, the “Volume of tumor (mm^3) (mean ± SD)” value came to 967.35 ± 247.89 mm^3 in assay [1] and 1065.78 ± 432.05 mm^3 in assay [3]. Further, the “Migration rate (%) (mean ± SD, P)” value in assay [2] was 13.59 ± 2.07,** %; in assay [4] it was 8.29 ± 3.50,*** %.
Regarding “N50: SEQ ID NO: 1 with N18R, addition of 2 amino acid at the carboxyl terminal, PEG modification at the amino terminal ({PEG}-YRVRFLAKENVTQDAEDRCT; reading uncertain)”, the “Migration rate (%) (mean ± SD, P)” value in assay [2] is listed as 18.35 ± 3.91,** %. Besides, in assay [3], the “Weight of tumor (g) (mean ± SD)” value is 0.85 ± 0.27 g and the “Volume of tumor (mm^3) (mean ± SD)” value is given as 1463.11 ± 472.43 mm^3. Besides, the “Migration rate (%) (mean ± SD, P)” value in assay [4] is 15.97 ± 2.33,** %.
The corresponding values for “N51: SEQ ID NO: 1 with A15R, one amino acid added at each terminal, PEG modification at the amino terminal ({PEG}-FYRVRFLAKENVTQDREDNC; reading uncertain)” are 10.6 ± 2.33,*** %, 0.75 ± 0.37 g, 1412.56 ± 599.92 mm^3 and 17.96 ± 3.20,** %.
The corresponding values for “N52: SEQ ID NO: 1 with N18R, addition of two amino acids and PEG modification at the carboxyl terminal (YRVRFLAKENVTQDAEDRCT-{PEG}; reading uncertain)” are 13.87 ± 3.13,*** %, 0.7 ± 0.2 g, 1425.2 ± 555.76 mm^3 and 19.57 ± 2.21,** %.
On the same counts, the results for “N53: SEQ ID NO: 1 with A15R, one amino acid added at each terminal, PEG modification at the carboxyl terminal (FYRVRFLAKENVTQDREDNC-{PEG}; reading uncertain)” are 8.02 ± 3.35,*** %, 0.75 ± 0.27 g, 1549.08 ± 539.99 mm^3 and 18.83 ± 4.71,** %.
In the case of “N54: SEQ ID NO: 1 with A7R, addition of two amino acids and PEG modification at the carboxyl terminal (YRVRFLRKENVTQDAEDNTC-{PEG}; reading uncertain)”, in assay [2], the “Migration rate (%) (mean ± SD, P)” value was 3.19 ± 1.08,*** %. Besides, in assay [3], the “Weight of tumor (g) (mean ± SD)” value is recorded as 0.89 ± 0.37 g and the “Volume of tumor (mm^3) (mean ± SD)” value was determined as 1381.65 ± 396.21 mm^3. Moreover, the “Migration rate (%) (mean ± SD, P)” value in assay [4] was 16.91 ± 3.21,** %.

Source of the values: patent US20220280594A1, “APPLICATION OF POLYPEPTIDE OR DERIVATIVE THEREOF” (CHENGDU HUITAI BIOMEDICINE CO., LTD., priority 2019, published 2022).
